The values below come from ChEMBL document CHEMBL1201862, “PubChem BioAssay data set” (2004).

Among the test systems are OVCAR-3; CAKI-1; RXF 393; SNB-19; SK-OV-3; SN12C; NCI-H226; SR; UO-31; SW-620; NCI-H522; CCRF-CEM; HL-60; SK-MEL-28; SK-MEL-5; UACC-257; HCC 2998; A498.
Common to all, as to assay: NCI tumour cell line growth inhibition, 48 h

Each structure is given as a SMILES string.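 Following 48 hours of exposure in 96-well plates, responses at five concentrations were used to interpolate endpoints linearly. Here, GI50 denotes the concentration required for 50% inhibition of growth.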 Activity calls are given as the source filed them. Cut-off read from the data, not from the text of the source: active = GI50 up to about 1.1 µM and inactive = higher. Where only a bound is given, the exact number is not on record here.

Take `Cc1ccc(SCC(=O)C2=C(O)CCCC2=O)cc1`: the GI50 in the test on OVCAR-3, with CAKI-1, with RXF 393, with SNB-19, in the test on SK-OV-3 and with SN12C was > 100 µM (inactive) throughout. Further, the GI50 in the test with NCI-H226 is > 100 µM (inactive); in the test on SR, > 100 µM (inactive); with UO-31, > 100 µM (inactive); in the test with SW-620, > 100 µM (inactive); in the test with NCI-H522, > 100 µM (inactive); with CCRF-CEM, 40.6 µM (inactive). Moreover, the GI50 in the test with HL-60, in the test on SK-MEL-28, in the test on SK-MEL-5 and in the test on UACC-257 was > 100 µM (inactive) each time.
With `CC(=O)O[C@H]1CSC[C@@H](OC(C)=O)C1[N+](=O)[O-]` (some centres undefined), the GI50 is 21.5 µM (inactive) with OVCAR-3; 48.6 µM (inactive) in the test with CAKI-1; 20.1 µM (inactive) in the test with RXF 393; 33.7 µM (inactive) in the test with HCC 2998; > 100 µM (inactive) in the test on A498; > 100 µM (inactive) in the test on SNB-19. The GI50 in the test with SK-OV-3 was > 100 µM (inactive); in the test on SN12C, > 100 µM (inactive); in the test on NCI-H226, > 100 µM (inactive); with SW-620, 27 µM (inactive); in the test with NCI-H522, 19.4 µM (inactive); in the test with CCRF-CEM it was 19.5 µM (inactive). In addition, the GI50 in the test on HL-60 is 23.2 µM (inactive); in the test on SK-MEL-28, 26.8 µM (inactive); in the test with SK-MEL-5, 47.8 µM (inactive); with UACC-257, 20.6 µM (inactive).
With `CN(/N=C/c1cccc2cccnc12)c1c([N+](=O)[O-])cc([N+](=O)[O-])cc1[N+](=O)[O-]`, the GI50 with OVCAR-3 was > 100 µM (inactive); with CAKI-1 it was > 100 µM (inactive); in the test on RXF 393, > 100 µM (inactive); in the test on HCC 2998 it was > 100 µM (inactive); in the test on A498 it was 25.5 µM (inactive); with SNB-19, > 100 µM (inactive). Further, the GI50 is > 100 µM (inactive) in the test on SK-OV-3; > 100 µM (inactive) with SN12C; > 100 µM (inactive) with NCI-H226; > 100 µM (inactive) in the test with SW-620; 5.82 µM (inactive) in the test on HL-60; > 100 µM (inactive) in the test with SK-MEL-28. Besides, the GI50 with SK-MEL-5 is 64.9 µM (inactive); in the test on UACC-257, > 100 µM (inactive).
For `OC(c1cc2ccccc2[nH]1)C(O)(c1cc2ccccc2[nH]1)c1cc2ccccc2[nH]1` (centres undefined), the GI50 with OVCAR-3 was 4.28 µM (inactive); in the test on CAKI-1 it was 19.9 µM (inactive); in the test with RXF 393, 7.18 µM (inactive); in the test with HCC 2998, 8.09 µM (inactive); in the test on SNB-19 it was 27.2 µM (inactive); in the test on SK-OV-3, 10.4 µM (inactive). The GI50 in the test on SN12C was 5.53 µM (inactive); in the test on NCI-H226 it was 11.8 µM (inactive); with SR, 7.69 µM (inactive); in the test on SW-620, 10.1 µM (inactive); in the test on NCI-H522 it was 8.61 µM (inactive); in the test on CCRF-CEM, 12.3 µM (inactive). Further, the GI50 with HL-60 is 7.91 µM (inactive); with SK-MEL-28, 19.1 µM (inactive); in the test with SK-MEL-5, 11.6 µM (inactive); in the test on UACC-257 it was 16.3 µM (inactive).
In the case of `COc1c(C)c(O)c2c(=O)cc(-c3ccccc3)oc2c1C`, the GI50 in the test on OVCAR-3, in the test with CAKI-1, with HCC 2998, in the test on A498, in the test on SK-OV-3 and in the test on SN12C was > 100 µM (inactive) throughout. Besides, the GI50 in the test on NCI-H226, in the test on UO-31, with SW-620, in the test with NCI-H522, in the test on CCRF-CEM and in the test with SK-MEL-28 was > 100 µM (inactive) in each case. The GI50 with SK-MEL-5 and in the test with UACC-257 was > 100 µM (inactive) throughout.
As to `O=C1/C(=C/c2ccc(Br)cc2)CCC/C1=C\c1ccc(Br)cc1`, the GI50 was 4.08 µM (inactive) in the test on OVCAR-3; 29.2 µM (inactive) in the test with CAKI-1; 5.14 µM (inactive) in the test on RXF 393; 2.31 µM (inactive) in the test on HCC 2998; 5.32 µM (inactive) in the test with A498; 18.9 µM (inactive) in the test with SNB-19. The GI50 in the test with SK-OV-3 is 56.8 µM (inactive); with SN12C it was 19.7 µM (inactive); in the test with UO-31 it was 12.3 µM (inactive); in the test on SW-620, 5.13 µM (inactive); in the test on NCI-H522, 13.6 µM (inactive); in the test on CCRF-CEM, 5.11 µM (inactive). The GI50 in the test on HL-60 was 3.18 µM (inactive); in the test on SK-MEL-28 it was 2.12 µM (inactive); in the test with SK-MEL-5 it was 13.9 µM (inactive); in the test on UACC-257 it was 4.2 µM (inactive).
Take `C=C1C(=O)O[C@@H]2[C@H]1CCC(C)=C1C=CC(=O)[C@]12C`: the GI50 is 16.7 µM (inactive) in the test on OVCAR-3; 15.1 µM (inactive) in the test on CAKI-1; 14.4 µM (inactive) in the test with RXF 393; 13.2 µM (inactive) with HCC 2998; 23.7 µM (inactive) with SNB-19; 27.2 µM (inactive) in the test with SK-OV-3. Also, the GI50 was 12.6 µM (inactive) in the test with SN12C; 22.9 µM (inactive) in the test with NCI-H226; 13.6 µM (inactive) in the test with SR; 14.9 µM (inactive) in the test on UO-31; 6.21 µM (inactive) with SW-620; 2.42 µM (inactive) in the test with NCI-H522. Besides, the GI50 in the test on CCRF-CEM is 3.15 µM (inactive); with HL-60, 3.3 µM (inactive); in the test on SK-MEL-28, 11.1 µM (inactive); with SK-MEL-5 it was 13.9 µM (inactive); in the test with UACC-257 it was 12.4 µM (inactive).
`CC1(C)O[C@H]2[C@H](O)C[C@](O)(CO)C[C@H]2O1`: the GI50 in the test with OVCAR-3, in the test on CAKI-1, in the test on RXF 393, in the test with SNB-19, in the test with SK-OV-3 and in the test on SN12C was > 100 µM (inactive) in each case. Besides, the GI50 with NCI-H226, with SR, with UO-31, in the test on SW-620, in the test on NCI-H522 and in the test on SK-MEL-28 was > 100 µM (inactive) throughout. For the same compound, the GI50 with SK-MEL-5 and in the test with UACC-257 was > 100 µM (inactive) in each case.
For the compound `CCOP1(=O)C=C(C)C(Cl)=C(C)C1` (centres undefined), the GI50 in the test with OVCAR-3 is 37.3 µM (inactive); with RXF 393 it was 29.7 µM (inactive); in the test on HCC 2998, 80.2 µM (inactive); in the test on SNB-19, > 100 µM (inactive); in the test on SK-OV-3 it was 60.3 µM (inactive); with SN12C it was 21 µM (inactive). In addition, the GI50 was 21.4 µM (inactive) in the test on NCI-H226; 27.2 µM (inactive) in the test on SR; 35.3 µM (inactive) in the test on UO-31; 21.1 µM (inactive) with SW-620; 13.9 µM (inactive) in the test on NCI-H522; 17.6 µM (inactive) in the test with CCRF-CEM. In addition, the GI50 was 19.1 µM (inactive) in the test with HL-60, 17.3 µM (inactive) in the test with SK-MEL-28, 23.1 µM (inactive) with SK-MEL-5 and 23.1 µM (inactive) in the test with UACC-257.
For the compound `COc1ccc2cc1Oc1ccc(cc1)CC1c3cc(c(OC)cc3CCN1C)Oc1c3c(cc4c1C(C2)N(C)CC4)OCO3` (centres undefined), the GI50 was 15.7 µM (inactive) with OVCAR-3; 1.83 µM (inactive) with RXF 393; 11.5 µM (inactive) in the test on HCC 2998; 17.6 µM (inactive) in the test on SNB-19; 11.4 µM (inactive) in the test with SN12C; 2.35 µM (inactive) in the test on NCI-H226. Moreover, the GI50 in the test with SR was 7.85 µM (inactive); in the test on SW-620 it was 13.1 µM (inactive); in the test with NCI-H522, 7.16 µM (inactive); in the test with CCRF-CEM, 13.2 µM (inactive); with HL-60 it was 1.92 µM (inactive); in the test with SK-MEL-28 it was 3.29 µM (inactive). In the test with SK-MEL-5, the GI50 is 12.3 µM (inactive).
As for `Clc1ccccc1CN1COc2c(ccc3cccnc23)C1`, the GI50 was 3.32 µM (inactive) in the test with OVCAR-3; 2.88 µM (inactive) in the test with CAKI-1; 3.4 µM (inactive) with RXF 393; 6.95 µM (inactive) with HCC 2998; 8.24 µM (inactive) with A498; 11.8 µM (inactive) in the test on SNB-19. The GI50 in the test on SK-OV-3 was 8.05 µM (inactive); with SN12C, 6.93 µM (inactive); in the test on NCI-H226 it was 3.87 µM (inactive); with UO-31, 1.8 µM (inactive); in the test on SW-620, 3.42 µM (inactive); with NCI-H522 it was 0.404 µM (active). The GI50 is 0.405 µM (active) with CCRF-CEM; 1.83 µM (inactive) in the test with HL-60; 3.61 µM (inactive) in the test with SK-MEL-28; 2.77 µM (inactive) in the test on SK-MEL-5; 2.72 µM (inactive) in the test on UACC-257.
Regarding `COc1cc2cc(OC(C)=O)c3cc4c(cc3c2c(OC)c1OC)OCO4`, the GI50 in the test on OVCAR-3, with RXF 393, in the test with HCC 2998, in the test with A498, in the test on SNB-19 and with SK-OV-3 was > 100 µM (inactive) each time. The GI50 in the test on SN12C, with NCI-H226, with UO-31, in the test with SW-620, with NCI-H522 and in the test with CCRF-CEM was > 100 µM (inactive) each time. In addition, the GI50 with HL-60, with SK-MEL-28, with SK-MEL-5 and in the test with UACC-257 was > 100 µM (inactive) throughout.
Take `O=C1c2cccc3c(Cl)ccc(c23)C(=O)N1CCCN1CCN(CCCN2C(=O)c3cccc4c(Cl)ccc(c34)C2=O)CC1`: the GI50 with OVCAR-3 was > 100 µM (inactive); in the test with CAKI-1 it was > 100 µM (inactive); in the test on HCC 2998, 53.3 µM (inactive); in the test on A498, > 100 µM (inactive); in the test with SNB-19, > 100 µM (inactive); with SK-OV-3, > 100 µM (inactive). For the same compound, the GI50 in the test on SN12C, in the test on NCI-H226, in the test on UO-31, in the test on SW-620, in the test on CCRF-CEM and with HL-60 was > 100 µM (inactive) throughout. For the same compound, the GI50 in the test with SK-MEL-5 and in the test on UACC-257 was > 100 µM (inactive) each time.
